Laboratory results reported in ChEMBL document CHEMBL4130453, “Discovery of an Isothiazole-Based Phenylpropanoic Acid GPR120 Agonist as a Development Candidate for Type 2 Diabetes” (ACS Med Chem Lett, 2017).

Tests used:
[1] = target: Free fatty acid receptor 4 (Homo sapiens, UniProt Q5NUL3); test: Agonist activity at human GPR120 short splice variant expressed in HEK293 cells assessed as increase in intracellular calcium flux incubated for 30 mins measured for 300 secs at 1 sec interval by Fluo-4 NW dye based FLIPR assay; type: functional, cell-based
[2] = Metabolic stability in human liver microsomes assessed as parent compound remaining measured at 10 mins; type: ADME, microsome; details: read-out: Stability
[3] = Metabolic stability in mouse liver microsomes assessed as parent compound remaining measured at 10 mins; type: ADME, microsome; details: for remaining at 10 min: liver microsomes, read-out: Stability
[4] = Metabolic stability in rat liver microsomes assessed as parent compound remaining measured at 10 mins; type: ADME, microsome
[5] = target: T1, Free fatty acid receptor 4 (Homo sapiens, UniProt Q5NUL3); test: Agonist activity at PK-tagged human GPR120 long isoform expressed in CHOK1 cells co-expressing EA-tagged beta-arrestin assessed as beta-gal enzyme complex formation after 90 mins by enzyme fragment complementation assay; type: cell-based
T1 sequence (Q5NUL3 whole entry): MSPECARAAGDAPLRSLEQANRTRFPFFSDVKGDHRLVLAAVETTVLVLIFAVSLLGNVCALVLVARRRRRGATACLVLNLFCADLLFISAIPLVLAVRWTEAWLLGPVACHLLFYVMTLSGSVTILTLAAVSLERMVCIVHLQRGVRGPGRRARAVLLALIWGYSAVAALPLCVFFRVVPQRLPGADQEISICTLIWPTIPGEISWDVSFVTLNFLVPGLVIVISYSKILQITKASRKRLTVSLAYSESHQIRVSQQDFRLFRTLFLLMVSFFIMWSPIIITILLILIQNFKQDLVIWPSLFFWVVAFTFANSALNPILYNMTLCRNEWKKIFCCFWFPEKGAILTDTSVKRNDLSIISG

SMILES	EC50 [1]	also measured
COc1ccc(-c2nsc(C(F)(F)F)c2COc2c(F)cc(CCC(=O)O)cc2F)cc1	75 nM	
O=C(O)CCc1cc(F)c(OCc2c(-c3ccc(Cl)cc3)nsc2C(F)(F)F)c(F)c1	51 nM	
CCc1ccc(-c2nsc(C(F)(F)F)c2COc2c(F)cc(CCC(=O)O)cc2F)cc1	34 nM	
N#Cc1ccc(-c2nsc(C(F)(F)F)c2COc2c(F)cc(CCC(=O)O)cc2F)cc1	672 nM	
CCc1ccc(-c2nsc(CC)c2COc2ccc(CCC(=O)O)c(C)c2C)cc1	680 nM	
O=C(O)CCc1cc(F)c(OCc2c(-c3ccc(OC(F)(F)F)cc3)nsc2C(F)(F)F)c(F)c1	314 nM	EC50 [5]: 99 nM
CCc1ccc(-c2snc(Cl)c2COc2ccc(CCC(=O)O)c(C)c2C)cc1	56 nM	remaining at 10 min [2]: 76%; remaining at 10 min [3]: 102%

The next lines start with results.

EC50 [1]	SMILES	also measured
121 nM	Cc1cc(OCc2c(-c3ccc(Cl)cc3)nsc2C(F)(F)F)c(F)cc1CCC(=O)O	
155 nM	Cc1c(CCC(=O)O)ccc(OCc2c(-c3ccc(Cl)cc3)nsc2C(F)(F)F)c1C	remaining at 10 min [2]: 104%; Stability ([3]; microsomes, 10 min): 127%; Stability ([4]; microsomes, 10 min): 133%
31 nM	O=C(O)CCc1ccc(OCc2c(-c3ccc(Cl)cc3)nsc2C(F)(F)F)c(Br)c1	
236 nM	O=C(O)CCc1ccc(OCc2c(-c3ccc(Cl)cc3)nsc2C(F)(F)F)cc1C(F)(F)F	
106 nM	Cc1snc(-c2ccc(Cl)cc2)c1COc1ccc(CCC(=O)O)c(C)c1C	EC50 [5]: 128 nM; remaining at 10 min [2]: 74%; remaining at 10 min [3]: 35%; remaining at 10 min ([4]; liver microsomes, read-out: Stability): 57%
86 nM	O=C(O)CCc1ccc(OCc2c(-c3ccc(Cl)cc3)nsc2C(F)(F)F)c(F)c1F	
120 nM	CCc1ccc(-c2nsc(C(F)(F)F)c2COc2ccc(CCC(=O)O)c(C)c2C)cc1	EC50 [5]: 210 nM
